Data from ChEMBL document CHEMBL1201862, “PubChem BioAssay data set” (2004).
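The compound was tested at five concentrations on cells cultured in 96-well plates, with a 48-hour exposure period. Abbreviation: GI50, concentration required for 50% inhibition of growth.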 Calls of active or inactive are those of the source. Cut-off read from the data, not from the text of the source: active = GI50 up to about 1.1 µM and inactive = higher.

Legend:
Assay in all cases: NCI tumour cell line growth inhibition, 48 h
Hs-578T = test system: Hs-578T
DU-145 = test system: DU-145
UACC-257 = test system: UACC-257
NCI-H522 = test system: NCI-H522
HOP-92 = test system: HOP-92
786-0 = test system: 786-0
CCRF-CEM = test system: CCRF-CEM
A498 = test system: A498
LOX IMVI = test system: LOX IMVI
RPMI-8226 = test system: RPMI-8226
MOLT-4 = test system: MOLT-4
MCF7 = test system: MCF7
HCC 2998 = test system: HCC 2998
MDA-MB-435 = test system: MDA-MB-435
SF-295 = test system: SF-295
SW-620 = test system: SW-620
HOP-62 = test system: HOP-62
OVCAR-5 = test system: OVCAR-5
SN12C = test system: SN12C
SK-OV-3 = test system: SK-OV-3
BT-549 = test system: BT-549
COLO 205 = test system: COLO 205
SF-268 = test system: SF-268
CAKI-1 = test system: CAKI-1
U-251 = test system: U-251
M14 = test system: M14
UACC-62 = test system: UACC-62
SNB-19 = test system: SNB-19
Malme-3M = test system: Malme-3M
TK-10 = test system: TK-10
MDA-MB-231 = test system: MDA-MB-231
KM12 = test system: KM12
OVCAR-4 = test system: OVCAR-4
MDA-N = test system: MDA-N
SK-MEL-5 = test system: SK-MEL-5
ACHN = test system: ACHN
T47D = test system: T47D
A549 = test system: A549
NCI/ADR-RES = test system: NCI/ADR-RES
SNB-75 = test system: SNB-75
HCT-15 = test system: HCT-15
EKVX = test system: EKVX
RXF 393 = test system: RXF 393
NCI-H460 = test system: NCI-H460
SR = test system: SR
OVCAR-3 = test system: OVCAR-3
SK-MEL-2 = test system: SK-MEL-2
SK-MEL-28 = test system: SK-MEL-28
OVCAR-8 = test system: OVCAR-8
PC-3 = test system: PC-3
HCT-116 = test system: HCT-116
UO-31 = test system: UO-31
IGROV-1 = test system: IGROV-1
NCI-H23 = test system: NCI-H23
K562 = test system: K562
HT-29 = test system: HT-29
NCI-H226 = test system: NCI-H226
SF-539 = test system: SF-539
HL-60 = test system: HL-60

With `Cc1[nH]c(/C=C2\C(=O)Nc3ccccc32)c(C)c1CCC(=O)O` [ORANTINIB] the GI50 (Hs-578T) was 37.9 µM (inactive), the GI50 (DU-145) was 31.5 µM (inactive) and the GI50 (UACC-257) was 23.7 µM (inactive). For the same compound, the GI50 (NCI-H522) was 34.1 µM (inactive), the GI50 (HOP-92) was 21.8 µM (inactive) and the GI50 (786-0) was 51.4 µM (inactive). For the same compound, the GI50 (CCRF-CEM) was 34.7 µM (inactive), the GI50 (A498) was 55 µM (inactive) and the GI50 (LOX IMVI) was 28.4 µM (inactive). For the same compound, the GI50 (RPMI-8226) was 22.8 µM (inactive), the GI50 (MOLT-4) was 30.1 µM (inactive) and the GI50 (MCF7) was 28.1 µM (inactive). For the same compound, the GI50 (HCC 2998) was 35.6 µM (inactive), the GI50 (MDA-MB-435) was 36.5 µM (inactive) and the GI50 (SF-295) was 32.5 µM (inactive). For the same compound, the GI50 (SW-620) was 25.7 µM (inactive), the GI50 (HOP-62) was 29.4 µM (inactive) and the GI50 (OVCAR-5) was 27.5 µM (inactive). For the same compound, the GI50 (SN12C) was 31 µM (inactive), the GI50 (SK-OV-3) was 30.1 µM (inactive) and the GI50 (BT-549) was 34.1 µM (inactive). The GI50 (COLO 205) was 20.6 µM (inactive), the GI50 (SF-268) was 34.4 µM (inactive) and the GI50 (CAKI-1) was 22.1 µM (inactive). For the same compound, the GI50 (U-251) was 59.4 µM (inactive), the GI50 (M14) was 23.1 µM (inactive) and the GI50 (UACC-62) was 32.2 µM (inactive). For the same compound, the GI50 (SNB-19) was 53.5 µM (inactive), the GI50 (Malme-3M) was 21.2 µM (inactive) and the GI50 (TK-10) was 42.5 µM (inactive). The GI50 (MDA-MB-231) was 37.9 µM (inactive), the GI50 (KM12) was 4.37 µM (inactive) and the GI50 (OVCAR-4) was 33.6 µM (inactive). For the same compound, the GI50 (MDA-N) was 27.2 µM (inactive), the GI50 (SK-MEL-5) was 26.5 µM (inactive) and the GI50 (ACHN) was 30.5 µM (inactive). For the same compound, the GI50 (T47D) was 34.1 µM (inactive), the GI50 (A549) was 33.9 µM (inactive) and the GI50 (NCI/ADR-RES) was 37.3 µM (inactive). The GI50 (SNB-75) was 12.6 µM (inactive), the GI50 (HCT-15) was 31.4 µM and the GI50 (EKVX) was 28.5 µM (inactive). For the same compound, the GI50 (RXF 393) was 29.1 µM (inactive), the GI50 (NCI-H460) was 31 µM (inactive) and the GI50 (SR) was 23.9 µM (inactive). For the same compound, the GI50 (OVCAR-3) was 22.1 µM (inactive), the GI50 (SK-MEL-2) was 16.8 µM (inactive) and the GI50 (SK-MEL-28) was 31.1 µM (inactive). The GI50 (OVCAR-8) was 40.7 µM (inactive), the GI50 (PC-3) was 35.7 µM (inactive) and the GI50 (HCT-116) was 31.1 µM (inactive). The GI50 (UO-31) was 32.7 µM (inactive), the GI50 (IGROV-1) was 21.9 µM (inactive) and the GI50 (NCI-H23) was 27.7 µM (inactive). For the same compound, the GI50 (K562) was 36.4 µM (inactive).

`Cc1cc2nnc(C(N)=O)c(N)c2cc1C` was tested, and the GI50 (Hs-578T) was 30.5 µM (inactive), the GI50 (DU-145) was > 100 µM (inactive) and the GI50 (UACC-257) was > 100 µM (inactive). For the same compound, the GI50 (NCI-H522) was 20 µM (inactive), the GI50 (HOP-92) was 26.2 µM (inactive) and the GI50 (786-0) was 29.1 µM (inactive). For the same compound, the GI50 (CCRF-CEM) was > 100 µM (inactive), the GI50 (A498) was > 100 µM (inactive) and the GI50 (LOX IMVI) was > 100 µM (inactive). The GI50 (HT-29) was > 100 µM (inactive), the GI50 (RPMI-8226) was > 100 µM (inactive) and the GI50 (MOLT-4) was > 100 µM (inactive). For the same compound, the GI50 (MCF7) was > 100 µM (inactive), the GI50 (HCC 2998) was > 100 µM (inactive) and the GI50 (MDA-MB-435) was > 100 µM (inactive). The GI50 (SF-295) was > 100 µM (inactive), the GI50 (SW-620) was > 100 µM (inactive) and the GI50 (HOP-62) was 39.8 µM (inactive). For the same compound, the GI50 (OVCAR-5) was > 100 µM (inactive), the GI50 (SN12C) was > 100 µM (inactive) and the GI50 (SK-OV-3) was 42.1 µM (inactive). For the same compound, the GI50 (BT-549) was > 100 µM (inactive), the GI50 (COLO 205) was > 100 µM (inactive) and the GI50 (SF-268) was 30.1 µM (inactive). The GI50 (CAKI-1) was > 100 µM (inactive), the GI50 (U-251) was > 100 µM (inactive) and the GI50 (M14) was > 100 µM (inactive). For the same compound, the GI50 (UACC-62) was > 100 µM (inactive), the GI50 (NCI-H226) was > 100 µM (inactive) and the GI50 (SNB-19) was > 100 µM (inactive). The GI50 (Malme-3M) was 38.4 µM (inactive), the GI50 (SF-539) was > 100 µM (inactive) and the GI50 (TK-10) was > 100 µM (inactive). For the same compound, the GI50 (MDA-MB-231) was > 100 µM (inactive), the GI50 (KM12) was > 100 µM (inactive) and the GI50 (OVCAR-4) was > 100 µM (inactive). For the same compound, the GI50 (MDA-N) was > 100 µM (inactive), the GI50 (SK-MEL-5) was > 100 µM (inactive) and the GI50 (ACHN) was > 100 µM (inactive). The GI50 (T47D) was > 100 µM (inactive), the GI50 (A549) was > 100 µM (inactive) and the GI50 (NCI/ADR-RES) was > 100 µM (inactive). For the same compound, the GI50 (SNB-75) was 12.9 µM (inactive), the GI50 (HCT-15) was greater than 100 µM and the GI50 (EKVX) was > 100 µM (inactive). The GI50 (NCI-H460) was > 100 µM (inactive), the GI50 (SR) was > 100 µM (inactive) and the GI50 (HL-60) was > 100 µM (inactive). The GI50 (OVCAR-3) was > 100 µM (inactive), the GI50 (SK-MEL-2) was 64.7 µM (inactive) and the GI50 (OVCAR-8) was 47.8 µM (inactive). For the same compound, the GI50 (PC-3) was > 100 µM (inactive), the GI50 (HCT-116) was > 100 µM (inactive) and the GI50 (UO-31) was > 100 µM (inactive). The GI50 (IGROV-1) was > 100 µM (inactive), the GI50 (NCI-H23) was > 100 µM (inactive) and the GI50 (K562) was > 100 µM (inactive).
